According to patent US11185527B2, “Methods and compositions relating to steroid hormone receptor-dependent cancers” (Wayne State University, priority 2017, dated 2021):

Tests used:
[1] = tested on: ELK1-dependent promoter activation by AR; assay: Primary screening assay: luciferase reporter in recombinant HeLa cells (Gal4-TATA-Luc, Gal4-ELK1, AR) treated with testosterone; assay type: cell-based, human
Text: FIG. 6A is a schematic diagram of the reporter system for the primary screening assay. Recombinant HeLa cells used in this assay harbor the Gal4-TATA-Luc promoter-reporter, and stably express a Gal4-ELK1 fusion protein as well as the androgen receptor (AR). Gal4-ELK1 is bound to the Gal4 elements in the promoter. In the absence of testosterone (small circle), AR is localized in the cytoplasm. When testosterone is present it binds to AR causing AR to translocate to the nucleus where it then binds to Gal4-ELK1 and activates the downstream luciferase reporter.
HeLa HLR cells obtained from Dr. Johann Hofman (Innsbruck Medical University), which were originally designed to serve as a cell-based assay system to measure modulation of MAPK activity. HeLa HLR cells have a stably integrated minimal promoter-luciferase reporter containing five upstream Gal4 elements (Gal4-TATA-Luc) and also constitutively express a Gal4-ELK1 fusion protein in which the Gal4 DNA binding domain is substituted for the ETS DNA binding domain of ELK1. In order to produce recombinant cell lines for high throughput screening and counter screening of small molecule libraries, HeLa HLR were stably transduced with a vector expressing the full-length AR. A sequence encoding the full length AR (SEQ ID NO:9) was subcloned from the pCMV expression vector (Origene) into the pCDH-CMV-MCS-EF1-Puro cDNA Cloning and Expression Vector (System Biosciences) at NheI (upstream) and BamHI (downstream) sites. The lentiviral vector expressing full length AR was then packaged in lentivirus and the HeLa HLR cells were infected as described below in the sub-section “Lentivirus-mediated-Transduction.” After 72 hours (h) of infection, 2 ug/mL of puromycin was added to the culture medium to select for the transduced cells. The cells were plated at low density for colony formation (20-40 colonies) in a 100 mm dish. Clonal cells were isolated using cloning cylinders from CORNING (Cat. #3166-8). The selected clones were further expanded and then tested for luciferase induction by testosterone. The clone that gave the greatest luciferase signal to noise ratio in response to testosterone treatment was then chosen for use in the primary screening assay for high throughput small molecule screening.
For high throughput screening, recombinant primary screening cells were first depleted of hormone by growing them for 24h in medium in which the serum used was heat-inactivated and charcoal-stripped. The cells were then plated in 384-well white flat bottom plates (5,000 cells/well) (Corning Product #3570) using a Multidrop (Thermo Fisher Scientific, Waltham, Mass.). The plates were then incubated for 24h prior to adding test compounds. The following day test compounds from the LOPAC, Prestwick, or Maybridge Hitfinder libraries were added precisely in a 0.2 μL volume in the test wells using a Biomek FX liquid handler (Beckman Coutler, Break, Calif.) to achieve final media concentration of 10 μM of each test compound. Using the Multidrop (ThermoLab Systems, Helsinki, Finland), testosterone was added in addition to the test compounds to achieve a final media concentration of 10 nM. As the test compounds were re-constituted from powder stocks using dimethyl sulfoxide (DMSO) as the solvent, the final media concentration of DMSO was 0.4% v/v. For the assay negative control on each plate, one row of wells on each plate contained 10 nM testosterone and 0.4% v/v of DMSO. For the assay positive control on each plate, one row of wells on each plate contained 10 nM testosterone and 10 uM enzalutamide dissolved in DMSO (0.4% v/v of DMSO in the wells). The plates were incubated for 24h at 37° C. in 5% CO2. The medium was then aspirated leaving a residual volume 10 μl using an Elx 405-plate washer (Bio Tek U.S.). Then, 10 uL of the assay reagent Bright-Glo (Promega Corp., Madison Wis.) was added to each well. […]

[2] = tested on: activation of ELK1 by MEK/ERK; assay: Gal4-ELK1 reporter activation by constitutively active MEK1 in transfected HeLa cells; assay type: cell-based; conditions: HeLa cells with caMEK1; trametinib 1 μM, KCI807 20 μM
Experimental: FIG. 8 is a graph showing results of co-transfection of HeLa cells with the Gal4-TATA-Luc construct and the expression plasmid for the Gal4-ELK1 fusion protein. In addition the cells were transfected with an expression plasmid for a constitutively active MEK1 protein (caMEK1). The cells were then treated with the MEK1 inhibitor, trametinib (1 μM), KCI807 (20 μM), or vehicle (DMSO). Cells were harvested 48h post transfection and luciferase activity was measured. In all panels, the error bars represent standard deviation of experimental triplicates. *P<0.001
Hela Cells were plated in a 24-well plate at a concentration of 75,000 cells/well in antibiotic-free red DMEM. The following day the cells were transfected with a total of 300 ng of plasmid DNA/well using Lipofectamine 2000. The cells were incubated for 24h then lysed using luciferase assay lysis buffer 5X from Promega. The luciferase activity of the cell lysates were measured using firefly substrate from Promega and a luminometer (Lumat LB9501, Berthold, Wildbad, Germany).
As a secondary test of target selectivity, the effect of 5,3′-dihydroxyflavone on activation of ELK1 by MEK/ERK was examined using HeLa cells co-transfected with the Gal4-TATA-Luc construct, the expression plasmid for the Gal4-ELK1 fusion protein and either an expression plasmid for a constitutively active MEK1 protein (caMEK1) or vector control.

[3] = tested on: AR target genes in 22Rv1 CRPC cells; assay: Real time RT-PCR of AR target gene mRNAs in 22Rv1 cells; assay type: cell-based, human; conditions: 22Rv1, 10 μM, 72h
Experimental: FIG. 3D is a graph showing that in 22Rv1 cells were treated with 10 μM of KCI807 for 72h and real time RT-PCR was used to measure mRNAs for the indicated panel of genes tested in FIG. 3B and FIG. 3C.
Total RNA was isolated from cells using the RNeasy Mini Kit (Qiagen). Reverse transcription PCR was then performed using 500 ng of total RNA with random primers and using the high-capacity complementary DNA Archive kit (Applied Biosystems). The complementary DNA from this reaction was measured using quantitative real time PCR using the StepONE Plus Real Time PCR system (Life Technologies Corporation, Carlsbad, Calif.). All reactions were performed in triplicate and normalized to glyceraldehyde-3-phosphate-dehydrogenase values in the same samples. All primers and Taqman probes were purchased from the applied Biosystems inventory (Invitrogen)
To test the selectivity of KCI807 for ELK1-dependent gene activation by AR vs. other target genes of the receptor, 22Rv1 CRPC cells, which are dependent on both full length AR and AR-V7 for hormone-independent growth, were used. […]

| Compound | selectivity for ELK1-dependent versus ARE-dependent promoter activity ([1]; primary versus counter screening assay) | inhibition of luciferase reporter activation by MEK1 (activation of ELK1 by MEK/ERK) [2] | effect on mRNA of AR target genes [3] | inhibition of ELK1-dependent promoter activation by AR (in words) ([1]; testosterone-treated recombinant HeLa cells, luciferase) |
| --- | --- | --- | --- | --- |
| O=c1cc(-c2cc(O)cc(F)c2)oc2cccc(O)c12 [5′-fluoro-5,3′-dihydroxyflavone] | more selective for the ELK1-dependent promoter activity than ARE-dependent activity | did not affect | – | – |
| O=c1cc(-c2cccc(O)c2)oc2cccc(O)c12 [KCI807, 5,3′-dihydroxyflavone] | – | did not inhibit | decreased expression of only the genes known to be supported synergistically by ELK1 and AR | – |
| CNC(=O)c1ccc(N2C(=S)N(c3ccc(C#N)c(C(F)(F)F)c3)C(=O)C2(C)C)cc1F [enzalutamide] | – | – | – | completely suppressed the signal |
